Measurements published in patent publication US20240185961A1, “DRUG MATERIAL INTERACTIONS USING QUARTZ CRYSTAL MICROBALANCE SENSORS” (Janssen Biotech, Inc., priority 2021, published 2024).

Experiments:
Format in all cases: physicochemical
[1] = QCM-D adsorption, PS20 only runs, PVC and PES sensor surfaces pooled; conditions: all at the same concentration, protein 3 experiments, 95% CI±19.77 ng/sq cm
Procedure: (§1) The experiments detailed below were informed using quartz sensors coated with various surface compositions such as PVC, PE, PES, PVDF, PC, or PP. These sensors can be pre and post-run cleaned, for example, by way of a 30 min soak in 1% Deconex 11 Solution, a minimum 2 hr soak in DI water (usually overnight), followed by a rinse with DI water and 99% ethanol three times and then blown dry by medical grade nitrogen gas. The sensors were then inserted into a QCM unit as was sample solution, diluent (e.g., NS), and water. Runs were configured and data and procedures were collected. Experimental data was then transformed from frequency to mass data using, for example, the above equations. […]
(§2) In one experimental run, over 60 sensorgrams (i.e., the outputs of the QCM-D instruments) were analyzed and transformed from frequency to mass adsorption data in the aforementioned example. Here the mass adsorbed during the sample period was of primary interest, and the mass during this period was measured by subtracting the average mass recorded and calculated during the diluent period where an ionic liquid had effect on resonance (period 2 above/520 in FIG. 5) from the average mass shift recorded and calculated during the sample period (period 3 above/530 in FIG. 5). […]

[2] = QCM-D adsorption to PVC sensor surface; conditions: protein 3 formulation, PS20-poor solution, average, 95% CI±33.7%
Procedure: as §1, §2

[3] = QCM-D adsorption to PES sensor surface; conditions: protein 3 formulation, PS20-poor solution, average, 95% CI±5.2%
Procedure: as §1, §2

With polysorbate 20 [PS20] the “average mass contribution, PS20 only runs” value [1] was 40.20 ng/sq cm, the “PS20 contribution to mass of layer at the surface” value [2] was 35.56% and the “PS20 contribution to mass of layer at the surface” value [3] was 12.22%.
